Our source for the inhibition and IC50 values is ChEMBL document CHEMBL5150025, “Exploratory study of oxatomide derivatives with high P2X7 receptor inhibitory activity” (Bioorg Med Chem Lett, 2022).

Molecules are shown by their SMILES.

One assay concerns the target T1, P2X purinoceptor 7 (Homo sapiens) (UniProt Q99572).
T1 sequence (whole entry): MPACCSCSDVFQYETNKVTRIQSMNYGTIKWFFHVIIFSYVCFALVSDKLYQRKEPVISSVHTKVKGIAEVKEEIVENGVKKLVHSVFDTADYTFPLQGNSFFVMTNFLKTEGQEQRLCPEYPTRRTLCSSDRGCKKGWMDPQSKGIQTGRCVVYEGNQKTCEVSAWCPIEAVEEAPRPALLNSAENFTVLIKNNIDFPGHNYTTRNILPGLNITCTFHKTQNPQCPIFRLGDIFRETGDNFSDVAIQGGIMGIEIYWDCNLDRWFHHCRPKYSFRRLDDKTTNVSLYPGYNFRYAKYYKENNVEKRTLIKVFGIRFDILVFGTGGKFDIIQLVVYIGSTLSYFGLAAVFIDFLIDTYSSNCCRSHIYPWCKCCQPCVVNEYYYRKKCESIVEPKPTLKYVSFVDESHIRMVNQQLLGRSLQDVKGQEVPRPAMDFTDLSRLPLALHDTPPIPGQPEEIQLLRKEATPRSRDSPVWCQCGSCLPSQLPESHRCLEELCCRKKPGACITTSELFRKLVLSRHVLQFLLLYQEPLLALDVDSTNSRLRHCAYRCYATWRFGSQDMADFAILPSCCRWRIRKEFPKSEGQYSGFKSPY
Description: Antagonist activity at P2X7 receptor in human RPMI-8226 cells assessed as inhibition of ATP-induced Ca2+ influx at 10 uM by fura-2 staining based assay relative to control. In kind it is cell-based. As to conditions: filed as antagonist.
The inhibition is the drop in the measured response relative to a control, in per cent. For `c1ccc(C(c2ccccc2)N2CCN(CCCCn3cncn3)CC2)cc1`, the inhibition stood at 87%.
As to `O=c1[nH]c2ccccc2n1CCCN1CCN(S(=O)(=O)c2ccc([N+](=O)[O-])cc2)CC1`, the inhibition was 72%.
On the same count and under the same terms, the result for `COc1ccc2c(ccn2CCCCN2CCN(C(c3ccccc3)c3ccccc3)CC2)c1` reads 54%; that for `O=c1[nH]c2ccccc2n1CCCN1CCN(S(=O)(=O)c2ccc(F)cc2)CC1`, 87%.
For `Cc1ccc(S(=O)(=O)N2CCN(CCCn3c(=O)[nH]c4ccccc43)CC2)cc1`, the inhibition is 64%.
Consider `O=c1[nH]c2ccccc2n1C/C=C/CN1CCN(C(c2ccccc2)c2ccccc2)CC1`, for which the inhibition was found to be 81%.

The target of another assay is T2, P2X purinoceptor 7 (Homo sapiens, UniProt Q99572).
T2 sequence (Q99572 whole entry): T1 sequence (whole entry)
Put plainly: Antagonist activity at P2X7 receptor in human RPMI-8226 cells assessed as inhibition of ATP-induced Ca2+ influx by fura-2 staining based assay.
Conditions: not given
The class given is cell-based.
The IC50 is the concentration needed to halve the response being measured. Regarding `c1ccc(C(c2ccccc2)N2CCN(CCCCn3cncn3)CC2)cc1`, the IC50 is greater than 10 µM.
As to `N#Cc1cn(CCCCN2CCN(C(c3ccccc3)c3ccccc3)CC2)c2ccccc12`, the concentration for half-maximal inhibition (IC50) was 1.5 µM.
Regarding `c1ccc(C(c2ccccc2)N2CCN(CCCCn3ccc4cnccc43)CC2)cc1`, the IC50 was determined as 0.46 µM.
Consider `Cc1cc2ncn(CCCCN3CCN(C(c4ccccc4)c4ccccc4)CC3)c2cc1C`, for which the IC50 worked out at 0.77 µM.
Still for that read-out and setting: under `O=C(C(c1ccccc1)c1ccccc1)N1CCN(CCCn2c(=O)[nH]c3ccccc32)CC1` stands 7.8 µM.
For `c1ccc(C(c2ccccc2)N2CCN(CCCCn3ccc4ccncc43)CC2)cc1`, the IC50 stood at 0.24 µM.
For the compound `Cc1cccc2ccn(CCCCN3CCN(C(c4ccccc4)c4ccccc4)CC3)c12`, the IC50 was found to be 2.3 µM.
`Cc1ccc2ccn(CCCCN3CCN(C(c4ccccc4)c4ccccc4)CC3)c2c1`: the IC50 is 6.5 µM.
As for `O=c1[nH]c2ccccc2n1CCCN1CCN(S(=O)(=O)c2ccc([N+](=O)[O-])cc2)CC1`, the IC50 is greater than 10 µM.
Turning to `COc1ccc2c(ccn2CCCCN2CCN(C(c3ccccc3)c3ccccc3)CC2)c1`, the IC50 was greater than 10 µM.
Consider `O=c1[nH]c2ccccc2n1CCCCCN1CCN(C(c2ccccc2)c2ccccc2)CC1`, for which the IC50 amounted to 0.56 µM.
In the case of `Cc1nccn1CCCCN1CCN(C(c2ccccc2)c2ccccc2)CC1`, the IC50 is 3.4 µM.
For the compound `O=c1[nH]c2ccccc2n1CCCN1CCC(=C(c2ccccc2)c2ccccc2)CC1`, the IC50 was found to be 2.4 µM.
For the compound `O=c1[nH]c2ccccc2n1CCCN1CCN(S(=O)(=O)c2ccc(F)cc2)CC1`, the IC50 is greater than 10 µM.
Turning to `c1ccc(C(c2ccccc2)N2CCN(CCCCn3ccc4cccnc43)CC2)cc1`, the IC50 came out at 0.18 µM.
`c1ccc(-c2nnnn2CCCCN2CCN(C(c3ccccc3)c3ccccc3)CC2)cc1`: the IC50 was found to be 3.2 µM.
In the case of `Cc1ccc(S(=O)(=O)N2CCN(CCCn3c(=O)[nH]c4ccccc43)CC2)cc1`, the IC50 was greater than 10 µM.
With `Cc1nc2ccccc2n1CCCCN1CCN(C(c2ccccc2)c2ccccc2)CC1`, the concentration for half-maximal inhibition (IC50) was 0.85 µM.
Still for that read-out and setting: under `O=c1[nH]c2ccccc2n1CCCCN1CCN(C(c2ccccc2)c2ccccc2)CC1` stands 0.18 µM; under `O=c1[nH]c2ccccc2n1CCCN1CCN(C2c3ccccc3CCc3ccccc32)CC1`, 5.2 µM.
In the case of `c1ccc(C(c2ccccc2)N2CCN(CCCCn3cnc4ccccc43)CC2)cc1`, the IC50 is 0.18 µM.
With `c1ccc(-c2nc3ccccc3n2CCCCN2CCN(C(c3ccccc3)c3ccccc3)CC2)cc1`, the IC50 was determined as 1.2 µM.
For the compound `O=c1[nH]c2ccccc2n1CCCN1CCC(C(O)(c2ccccc2)c2ccccc2)CC1`, the IC50 came to 7.5 µM.
As for `c1ccc(C(c2ccccc2)N2CCN(CCCCn3ccc4ccccc43)CC2)cc1`, the IC50 was 0.12 µM.
Turning to `COC(=O)c1cccc2ccn(CCCCN3CCN(C(c4ccccc4)c4ccccc4)CC3)c12`, the half-inhibitory concentration (IC50) is greater than 10 µM.
On the same count and under the same terms, the result for `O=c1[nH]c2ccccc2n1CCN1CCN(C(c2ccccc2)c2ccccc2)CC1` reads 0.95 µM; that for `Cc1nnnn1CCCCN1CCN(C(c2ccccc2)c2ccccc2)CC1`, 4.5 µM; that for `c1ccc(C(c2ccccc2)N2CCN(CCCCn3nnc4ccccc43)CC2)cc1`, 0.48 µM.
As for `c1ccc(C(c2ccccc2)N2CCN(CCCCn3ccc4ncccc43)CC2)cc1`, the IC50 came out at 0.32 µM.
For the compound `N#Cc1ccc2c(ccn2CCCCN2CCN(C(c3ccccc3)c3ccccc3)CC2)c1`, the IC50 was 3.8 µM.
As to `c1ccc(C(c2ccccc2)N2CCN(CCCCn3ncc4ccccc43)CC2)cc1`, the concentration for half-maximal inhibition (IC50) stood at 0.19 µM.
On the same count and under the same terms, the result for `Fc1cc2ccn(CCCCN3CCN(C(c4ccccc4)c4ccccc4)CC3)c2cc1F` reads 0.13 µM.
As for `O=c1[nH]c2ccccc2n1CCCN1CCN(C(c2ccccc2)c2ccccc2)CC1` [OXATOMIDE], the IC50 amounted to 0.83 µM.
For `Cc1cccc2c1ccn2CCCCN1CCN(C(c2ccccc2)c2ccccc2)CC1`, the IC50 stood at 5.3 µM.
With `Fc1ccc2ccn(CCCCN3CCN(C(c4ccccc4)c4ccccc4)CC3)c2c1`, the IC50 is 0.11 µM.
`O=c1[nH]c2ccccc2n1C/C=C/CN1CCN(C(c2ccccc2)c2ccccc2)CC1`: the IC50 is greater than 10 µM.
Take `Fc1ccc2c(ccn2CCCCN2CCN(C(c3ccccc3)c3ccccc3)CC2)c1`: the IC50 is 0.12 µM.
Take `Fc1cccc2c1ccn2CCCCN1CCN(C(c2ccccc2)c2ccccc2)CC1`: the IC50 amounted to 0.15 µM.
